Holding throughout (format): cell-based, human
Series [1] relates to edited iPSC clones. The series can be described thus: G-banded karyotyping of edited iPSC clones. Conditions: 6.25 ng/mL TSA. As to the method:
Karyotyping: Cells cultured for at least 5 passages were grown to 60-80% confluence and shipped for karyotype analysis to WiCell Research Institute, Madison, Wis. G-banded karyotyping was performed using standard cytogenetic protocols. Metaphase preparations were digitally captured with Applied Spectral Imaging software and hardware. For each cell line, 20 GTL-banded metaphases were counted, of which a minimum of 5 were analyzed and karyotyped. Results were reported in accordance with guidelines established by the International System for Cytogenetic Nomenclature 2016.

The subject of series [2] is iPSCs. The series can be described thus: Bulk RNA sequencing of TSA-treated iPSCs. Conditions: edited clones from 6.25 ng/mL TSA, data not shown. As for the experimental part:
RNA extraction and Bulk RNA sequencing: RNA was extracted from iPSCs in one well of 6-well plate using the GenElute™ Total RNA Purification Kit (Millipore Sigma) according to the manufacturer's instructions. RNA was then quantified using Nanodrop™ 2000 (ThermoFisher Scientific) and the integrity of samples were confirmed with the following three criteria for inclusion: 1) a concentration>50 ng/ml, 2) an A260/A280 rating of 1.8 and 2.1, and 3) an A260/A230 ratio>1.8. Total RNA was submitted to the University of Wisconsin-Madison Biotechnology Center and was verified for purity and integrity via the NanoDrop™ One Spectrophotometer and Agilent 2100 BioAnalyzer, respectively. Samples that met the Illumina® sample input guidelines were prepared according to the TruSeq®Stranded Total Sample Preparation Guide (1000000040499 v00) using the Illumina® TruSeq ® Stranded Total Sample Preparation kits (Illumina Inc., San Diego, Calif., USA) and sequenced on an Illumina® NovaSeg™ 6000 system at a run length 2×150 bp and target read depth of 30 million reads/sample at the University of Wisconsin—Madison Biotechnology Center. […] Normalized counts were then extracted and genes with read counts <10 were filtered out. Fold change was then calculated as the ratio of the reads of the TSA-treated iPSCs to the untreated iPSCs.

The test system of series [3] is iPSCs. The series can be described thus: iPSC morphology during long-term culture of edited cells. Conditions: long-term culture of the edited cells, 6.25 ng/mL TSA.
Series [4] relates to on-target and top off-target sites of HIST1H2BJ-GFP, AAVS1 S10, EMX1. In words: Off-target analysis of edited iPSCs (CHANGE-seq/GUIDE-seq sites, rhAmpSeq). As for the experimental part: Genome-wide, off-target analysis: Genomic DNA from iPSCs was isolated using Gentra® Puregene® Kit (Qiagen) according to the manufacturer's instructions. CHANGE-seq was performed as described in the art. Briefly, purified genomic DNA was tagmented with a custom Tn5-transposome to an average length of 400 bp, followed by gap repair with Kapa HiFi HotStart Uracil+DNA Polymerase (KAPA Biosystems) and Taq DNA ligase (NEB). Gap-repaired tagmented DNA was treated with USER™ enzyme (NEB) and T4 polynucleotide kinase (NEB). Intramolecular circularization of the DNA was performed with T4 DNA ligase (NEB) and residual linear DNA was degraded by a cocktail of exonucleases containing Plasmid-Safe ATP-dependent DNase (Lucigen), Lambda exonuclease (NEB), and Exonuclease I (NEB). In vitro cleavage reactions were performed with 125 ng of exonuclease-treated circularized DNA, 90 nM of SpCas9 protein (NEB), NEB buffer 3.1 (NEB) and 270 nM of sgRNA, in a 50 μL volume. Cleaved products were A-tailed, ligated with a hairpin adaptor (NEB), treated with USER™ enzyme (NEB), and amplified by PCR with barcoded universal primers NEBNext® Multiplex Oligos for Illumina® (NEB), using Kapa HiFi Polymerase (KAPA Biosystems). Libraries were quantified by qPCR (KAPA Biosystems) and sequenced with 151 bp paired-end reads on an Illumina® NextSeq instrument. CHANGE-seq data analyses were performed using open-source CHANGE-seq analysis software.
To determine the indel frequency at CHANGE-seq-identified off-target sites, on and off-target sites for were amplified from iPSC genomic DNA obtained using rhAmpSeg™ system (IDT), and sequencing libraries were generated according to the manufacturer's instructions. Sequencing was then performed with 150-bp paired-end reads on an Illumina® Miniseq instrument. Analysis was performed using CRISPAltRations: IDT rhAmpSeq CRISPR analysis tool.
Highly sensitive genome-wide, off-target analysis for our TSA-based editing strategy was assayed by CHANGE-seq at HIST1H2BJ-GFP site, which yielded a frequency distribution of the potential off-target sites (FIG. 3A,B). Top 12 off-target sites were amplified from genomic DNA using the rhAmp-Seq system (IDT) and subsequently sequenced using the Illumina® MiniSeq™ system. Sequencing data was then analyzed using the CRISPAltRations tool, which allowed for quantitative analysis of observed indel mutations (data not shown). […] Furthermore, the highest normalized on-target edit ratio was obtained for TSA concentration of 6.25 ng/mL, representative of the optimal TSA concentration for generating gene editing iPSCs.

Where [5] appears, read: HIST1H2BJ-GFP, AAVS1 S10, EMX1, with TSA concentration, FIG. 3C-E.

“Also recorded” adds a separate entry of the source.

As to `CC(/C=C/C(=O)NO)=C\[C@@H](C)C(=O)c1ccc(N(C)C)cc1` [TSA, Trichostatin A], the “Karyotype abnormality in one clone (#5)” value in series [1] (FIG. 4E, known recurrent duplication in pluripotent stem cell cultures) is recorded as “interstitial duplication in the long (q) arm of chromosome 20 in five of the twenty cells examined”. For the same compound, the “Karyotype of edited iPSC clones” value in series [1] (five clones, HIST1H2BJ-GFP locus) was “no genomic abnormalities in four of the five clones; also recorded: normal karyotype”. Besides, the “Gene expression of pluripotency marker genes (OCT4, NANOG, SOX2, TRA-1-60)” value in series [2] is reported as “did not decrease”. The iPSC morphology result in series [3] was “no changes”. For the same compound, the “TSA concentration giving highest normalized on-target edit ratio” value in series [4] (AAVS1 S10 and EMX1 loci) is 6.25 ng/mL; in series [4] (HIST1H2BJ-GFP site) it was 6.25 ng/mL; in series [4] (HIST1H2BJ-GFP, AAVS1 S10, EMX1, FIG. 3C-E) it was 6.25 ng/mL. Further, in series [4] (setting [5]), the Off-target indel % entry is “remains the same”. Further, in series [4] (setting [5]), the On-target indel % result was “increases”. In addition, the “Indel % at off-target sites” value in series [4] (top 12 off-target sites of HIST1H2BJ-GFP, upon TSA treatment) was “did not increase”; in series [4] (top off-target sites for AAVS1 S10 and EMX1 loci), “no significant increase”.

(Values after patent US20230272357A1, “METHODS OF GENOME EDITING INCLUDING CONTROLLED OPENING OF CHROMATIN” (Wisconsin Alumni Research Foundation, priority 2021, published 2023).)
